Reference: the NIST ThermoML archive (doi:10.1016/j.fluid.2006.03.018)
± gives the expanded uncertainty stated by the source.

Experiments:
[1] = for mass density: 298.15 K, 101.33 kPa
[2] = refractive index (Na D-line) (dimensionless); conditions: 298.15 K; 101.33 kPa; Liquid

Row | Compound | mass density ([1]; Liquid) | refractive index [2] | other results
1 | CC(C)(C)O [2-methylpropan-2-ol] | 781.2 ± 2 kg/m3 | 1.3852 ± 0.001 | vapor or sublimation pressure ([1]; 354.05 K, Liquid): 95.23 ± 4.8 kPa; vapor or sublimation pressure ([1]; 354.15 K, Liquid): 95.76 ± 4.8 kPa
2 | CCCCO [butan-1-ol] | 805.8 ± 2.1 kg/m3 | 1.3974 ± 0.001 | vapor or sublimation pressure ([1]; 389.45 K, Liquid): 95.76 ± 4.8 kPa; vapor or sublimation pressure ([1]; 391.55 K, Liquid): 95.23 ± 4.8 kPa
3 | CO [methanol] | 786.4 ± 2 kg/m3 | 1.3265 ± 0.001 | vapor or sublimation pressure ([1]; 336.15 K, Liquid): 95.23 ± 4.8 kPa; vapor or sublimation pressure ([1]; 336.35 K, Liquid): 95.76 ± 4.8 kPa
4 | Cc1ccccc1O [2-methylphenol] | 1046 ± 2.9 kg/m3 | 1.5468 ± 0.001 | vapor or sublimation pressure ([1]; 461.85 K, Liquid): 95.76 ± 4.8 kPa
5 | Cc1ccc(O)cc1 [4-methylphenol] |  | 1.539 ± 0.001 | mass density ([1]; Crystal): 1155 ± 4 kg/m3; vapor or sublimation pressure ([1]; 472.85 K, Liquid): 95.23 ± 4.8 kPa

Continued, in another order:

Row | mass density ([1]; Liquid) | refractive index [2] | Compound | other results
6 | 799.6 ± 2.2 kg/m3 | 1.3837 ± 0.0008 | CCCO [propan-1-ol] | vapor or sublimation pressure ([1]; 368.85 K, Liquid): 95.23 ± 4.8 kPa; vapor or sublimation pressure ([1]; 368.95 K, Liquid): 95.76 ± 4.8 kPa
7 | 802.4 ± 2.1 kg/m3 | 1.3953 ± 0.001 | CCC(C)O (stereo not drawn) [butan-2-ol] | vapor or sublimation pressure ([1]; 371.15 K, Liquid): 95.23 ± 4.8 kPa; vapor or sublimation pressure ([1]; 371.35 K, Liquid): 95.76 ± 4.8 kPa
8 | 784.9 ± 2 kg/m3 | 1.3594 ± 0.001 | CCO [ethanol] | vapor or sublimation pressure ([1]; 349.95 K, Liquid): 95.23 ± 4.8 kPa; vapor or sublimation pressure ([1]; 350.05 K, Liquid): 95.76 ± 4.8 kPa
9 | 781.3 ± 2 kg/m3 | 1.3752 ± 0.001 | CC(C)O [propan-2-ol] | vapor or sublimation pressure ([1]; 353.95 K, Liquid): 95.23 ± 4.8 kPa; vapor or sublimation pressure ([1]; 354.05 K, Liquid): 95.76 ± 4.8 kPa
10 | 797.8 ± 2 kg/m3 | 1.3939 ± 0.001 | CC(C)CO [2-methyl-1-propanol] | vapor or sublimation pressure ([1]; 379.55 K, Liquid): 95.23 ± 4.8 kPa; vapor or sublimation pressure ([1]; 379.75 K, Liquid): 95.76 ± 4.8 kPa
